Assay results as given in publication PMC10648541, “Design, Synthesis, and Antiproliferative Activity of Selective Histone Deacetylases 6 Inhibitors Containing a Tetrahydropyridopyrimidine Scaffold” (Molecules, 2023).
Like-named read-outs stand apart in the source and are kept apart here.

How the values were obtained:
HL60 = experiment: Antiproliferative assay (Alamar blue, 72 h), HL60; type: cell-based; conditions: Homo sapiens, HL-60, HL60 cells, three independent experiments, SD < 10%, read-out: Antiproliferative effect IC50, HL60
HCT116 = experiment: Antiproliferative assay (Alamar blue, 72 h), HCT116; type: cell-based; conditions: Homo sapiens, HCT-116, HCT116 cells, three independent experiments, SD < 10%, read-out: Antiproliferative effect IC50, HCT116
RPMI-8226 = experiment: Antiproliferative assay (Alamar blue, 72 h), RPMI-8226; type: cell-based, human; conditions: RPMI-8226 cells, three independent experiments, SD < 10%, read-out: Antiproliferative effect IC50, RPMI-8226
Protocol: The cells were cultured in IMDM (Gibco) medium with 20% FBS (Lonsera), 100 U/mL penicillin, and 100 µg/mL streptomycin (Solarbio). All cells were maintained at 37 °C in a humidified atmosphere of 5% CO2 in air. Briefly, 100 µL cell suspension or completed medium was plated into a 96-well plate. Compounds were added and incubated for 72 h. Then, 22 µL Alamar blue solution (1 mM) was pipetted into each well of a 96-well plate, and the plate was incubated for an additional 5~6 h. The absorbance (OD) was read at 530/590 nm. Data were normalized to vehicle groups (DMSO) and represented as the means of three independent measurements with standard errors of <20%. The IC50 values were calculated using Prism 5.0.

HDAC1 = target: T1, HDAC1 (Homo sapiens, UniProt Q13547); experiment: In vitro HDAC enzyme assay (Reaction Biology Corporation), HDAC1; type: biochemical; conditions: Table 1; duplicate, SD < 15%
T1 construct: purchased Reaction Biology Corporation
T1 sequence (Q13547 whole entry): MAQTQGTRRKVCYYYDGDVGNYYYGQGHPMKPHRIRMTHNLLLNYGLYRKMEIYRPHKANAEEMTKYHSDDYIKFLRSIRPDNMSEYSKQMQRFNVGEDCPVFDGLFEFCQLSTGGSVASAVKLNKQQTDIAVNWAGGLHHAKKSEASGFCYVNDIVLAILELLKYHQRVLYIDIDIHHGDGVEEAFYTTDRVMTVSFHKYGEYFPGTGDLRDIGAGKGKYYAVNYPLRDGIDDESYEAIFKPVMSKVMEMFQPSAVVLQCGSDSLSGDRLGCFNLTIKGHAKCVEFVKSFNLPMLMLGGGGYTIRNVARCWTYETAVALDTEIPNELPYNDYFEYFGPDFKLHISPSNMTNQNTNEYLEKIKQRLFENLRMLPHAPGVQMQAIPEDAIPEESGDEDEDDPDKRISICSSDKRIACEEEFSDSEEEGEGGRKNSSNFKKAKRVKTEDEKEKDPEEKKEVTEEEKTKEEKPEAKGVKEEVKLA

HDAC6 = target: T2, HDAC6 (Homo sapiens, UniProt Q9UBN7); experiment: In vitro HDAC enzyme assay (Reaction Biology Corporation), HDAC6; type: biochemical; conditions: Table 1
T2 construct: purchased Reaction Biology Corporation
T2 sequence (Q9UBN7 1-1215): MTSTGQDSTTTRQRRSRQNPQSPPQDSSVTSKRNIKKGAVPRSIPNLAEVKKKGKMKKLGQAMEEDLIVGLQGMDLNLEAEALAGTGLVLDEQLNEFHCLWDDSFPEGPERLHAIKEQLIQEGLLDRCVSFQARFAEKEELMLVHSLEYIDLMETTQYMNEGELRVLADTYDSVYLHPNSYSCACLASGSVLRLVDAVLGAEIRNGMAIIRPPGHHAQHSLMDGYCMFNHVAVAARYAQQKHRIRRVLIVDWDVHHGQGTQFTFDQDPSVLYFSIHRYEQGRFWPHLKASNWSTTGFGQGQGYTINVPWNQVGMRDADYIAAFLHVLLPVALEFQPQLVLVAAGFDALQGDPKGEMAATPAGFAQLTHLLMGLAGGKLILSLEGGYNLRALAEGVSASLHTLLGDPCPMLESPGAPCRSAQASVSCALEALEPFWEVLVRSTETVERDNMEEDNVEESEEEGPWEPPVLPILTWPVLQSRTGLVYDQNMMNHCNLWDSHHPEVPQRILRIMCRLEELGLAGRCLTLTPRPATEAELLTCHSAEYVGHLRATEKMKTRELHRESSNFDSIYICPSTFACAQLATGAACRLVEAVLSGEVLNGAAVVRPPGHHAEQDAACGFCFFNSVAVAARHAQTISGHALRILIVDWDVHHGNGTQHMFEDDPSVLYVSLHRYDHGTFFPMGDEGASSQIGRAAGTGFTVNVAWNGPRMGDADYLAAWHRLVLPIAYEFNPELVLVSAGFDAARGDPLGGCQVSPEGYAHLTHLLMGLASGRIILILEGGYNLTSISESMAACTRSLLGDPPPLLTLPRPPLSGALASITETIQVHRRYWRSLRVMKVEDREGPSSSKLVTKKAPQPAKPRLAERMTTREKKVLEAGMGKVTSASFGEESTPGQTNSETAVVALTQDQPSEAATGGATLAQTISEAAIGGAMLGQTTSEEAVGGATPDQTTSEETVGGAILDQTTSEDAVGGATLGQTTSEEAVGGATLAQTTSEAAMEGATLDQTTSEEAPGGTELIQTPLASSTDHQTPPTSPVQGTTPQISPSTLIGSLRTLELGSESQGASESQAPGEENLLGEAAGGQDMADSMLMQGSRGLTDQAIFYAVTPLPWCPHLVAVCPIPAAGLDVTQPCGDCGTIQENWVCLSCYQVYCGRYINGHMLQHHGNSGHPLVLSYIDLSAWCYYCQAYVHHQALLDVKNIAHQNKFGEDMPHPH

[1] = system: acetylated histone 3 (H3); experiment: Western blot, acetylated histone 3 in RPMI-8226 cells; type: cell-based, human; conditions: 24 h, 10 μM, compared to the vehicle
Protocol: (§1) RPMI-8226 cells (1 × 10^6) were seeded overnight and incubated with compound 8f for 24 h on indicated concentrations. Cell extract was prepared by lysing cultured cells with a mammalian protein extraction reagent supplemented with EDTA-free protease inhibitor for 15 min. SDS-PAGE and immunoblot analysis were conducted as described. Antibodies for Ac-H3 (abcom, AB32129) and Ac-ɑ-tubulin (Cell Signaling, 2144) were used.

acetylated α-tubulin = experiment: Western blot, acetylated α-tubulin in RPMI-8226 cells; type: cell-based, human; conditions: 24 h, 10 μM, compared to the vehicle
Protocol: as §1

Compound: O=C(CCCCCCNC(=O)c1cnc(N(c2ccccc2)c2ccccc2)nc1)NO [Compound 1, reference compound]
- IC50 (HL60): 4.1 µM
- IC50 (HCT116): 6.5 µM
- IC50 (RPMI-8226; Homo sapiens): 1.7 µM

Compound: O=C(CCCCCCC(=O)N1CCc2c(nc(-c3ccccc3)nc2-c2ccccc2)C1)NO [Compound 8a, 8-(2,4-Diphenyl-5,8-dihydropyrido [3,4-d]pyrimidin-7(6H)-yl)-N-hydroxy-8-oxooctanamide]
- IC50 (HL60): 12.5 µM
- IC50 (HCT116): 23.4 µM
- IC50 (RPMI-8226; Homo sapiens): 16.3 µM
- melting point: 115 to 117 °C

Compound: Cc1ccc(-c2nc3c(c(-c4ccc(C)cc4)n2)CCN(C(=O)CCCCCCC(=O)NO)C3)cc1 [Compound 8b, 8-(2,4-di-p-tolyl-5,8-dihydropyrido [3,4-d]pyrimidin-7(6H)-yl)-N-hydroxy-8-oxooctanamide]
- melting point: 110 to 112 °C

Compound: COc1ccc(-c2nc3c(c(-c4ccc(OC)cc4)n2)CCN(C(=O)CCCCCCC(=O)NO)C3)cc1 [Compound 8c, 8-(2,4-Bis(4-methoxyphenyl)-5,8-dihydropyrido [3,4-d]pyrimidin-7(6H)-yl)-N-hydroxy-8-oxooctanamide]
- IC50 (HL60): 3.78 µM
- IC50 (HCT116): 4.72 µM
- IC50 (RPMI-8226; Homo sapiens): 4.63 µM
- melting point: 117 to 118 °C
- IC50 (HDAC1): 0.472 µM

Compound: O=C(CCCCCCC(=O)N1CCc2c(nc(-c3ccoc3)nc2-c2ccoc2)C1)NO [Compound 8d, 8-(2,4-Di(furan-3-yl)-5,8-dihydropyrido [3,4-d]pyrimidin-7(6H)-yl)-N-hydroxy-8-oxooctanamide]
- melting point: 104 to 106 °C

Compound: O=C(CCCCCCC(=O)N1CCc2c(nc(-c3ccsc3)nc2-c2ccsc2)C1)NO [Compound 8e, 8-(2,4-Di(thiophen-3-yl)-5,8-dihydropyrido [3,4-d]pyrimidin-7(6H)-yl)-N-hydroxy-8-oxooctanamide]
- melting point: 123 to 124 °C

Compound: O=C(CCCCCCC(=O)N1CCc2c(nc(-c3cccs3)nc2-c2cccs2)C1)NO [Compound 8g, 8-(2,4-Di(thiophen-2-yl)-5,8-dihydropyrido [3,4-d]pyrimidin-7(6H)-yl)-N-hydroxy-8-oxooctanamide]
- melting point: 128 to 129 °C

Compound: O=C(CCCCCCC(=O)N1CCc2c(nc(-c3ccc(C(F)(F)F)cc3)nc2-c2ccc(C(F)(F)F)cc2)C1)NO [Compound 8h, 8-(2,4-Bis(4-(trifluoromethyl)phenyl)-5,8-dihydropyrido [3,4-d]pyrimidin-7(6H)-yl)-N-hydroxy-8-oxooctanamide]
- Selectivity Index (HDAC6; HDAC6 against HDAC1): 26
- IC50 (HDAC6; duplicate, SD < 15%): 0.0215 µM
- melting point: 145 to 146 °C
- IC50 (HDAC1): 0.551 µM

Compound: O=C(CCCCCCC(=O)Nc1ccccc1)NO [SAHA, reference compound]
- levels of acetylated histone H3 [1]: increased levels of both acetylated α-tubulin and acetylated histone H3 significantly
- IC50 (RPMI-8226): 0.66 µM
- levels of acetylated α-tubulin (acetylated α-tubulin): increased levels of both acetylated α-tubulin and acetylated histone H3 significantly
